Assay results reported in ChEMBL document CHEMBL1697781, “Assessment of the health effects of chemicals in humans: II. Construction of an adverse effects database for QSAR modeling” (Curr Drug Discov Technol, 2004).

These compounds were tested on Hepatotoxicity (assay: FDA HLAED, serum glutamic pyruvic transaminase (SGPT) increase). Settings: human.
Throughout, for GGT Increase - Index Value: reference of the scale not given here.
Throughout, for LDH Increase - Index Value: reference of the scale not given here.

Structure (SMILES) | SGPT Increase - Activity Score | SGPT Increase - Index Value | SGPT Increase - Number of Reports
CCCCCCC(=O)O[C@H]1CC[C@H]2[C@@H]3CCc4cc(O)ccc4[C@H]3CC[C@]12C [ESTRADIOL ENANTHATE] | Inactive | 2.1 | >= 4
C[C@]12CC[C@@H]3c4ccc(OC(=O)Cc5ccc(N(CCCl)CCCl)cc5)cc4CC[C@H]3[C@@H]1CC[C@@H]2OC(=O)Cc1ccc(N(CCCl)CCCl)cc1 [ESTRADIOL MUSTARD] | Inactive | 0 | < 4
CCCCCCCCCCC(=O)O[C@H]1CC[C@H]2[C@@H]3CCc4cc(O)ccc4[C@H]3CC[C@]12C [ESTRADIOL UNDECYLATE] | Inactive | 2.1 | >= 4
CCCCC(=O)O[C@H]1CC[C@H]2[C@@H]3CCc4cc(O)ccc4[C@H]3CC[C@]12C [ESTRADIOL VALERATE] | Inactive | 2.1 | >= 4
C[C@]12CC[C@@H]3c4ccc(O)cc4CC[C@H]3[C@@H]1CC[C@@H]2O [ESTRADIOL] | Inactive | 2.1 | >= 4
C[C@]12CC[C@@H]3c4ccc(OC(=O)N(CCCl)CCCl)cc4CC[C@H]3[C@@H]1CC[C@@H]2O [ESTRAMUSTINE] | Inactive | 0 | < 4
CCc1cccc2c3c([nH]c12)C(CC)(CC(=O)O)OCC3 (configuration not stated) [ETODOLAC] | Inactive | 1.4 | >= 4
CCOC(=O)c1cncn1[C@H](C)c1ccccc1 [ETOMIDATE] | Inactive | 0 | < 4
COc1cc([C@@H]2c3cc4c(cc3[C@@H](O[C@@H]3O[C@@H]5CO[C@@H](C)O[C@H]5[C@H](O)[C@H]3O)[C@H]3COC(=O)[C@H]23)OCO4)cc(OC)c1O [ETOPOSIDE] | Inactive | 0 | < 4

These compounds were tested on Hepatotoxicity (assay: FDA HLAED, serum glutamic oxaloacetic transaminase (SGOT) increase). Settings: human.

Structure (SMILES) | SGOT Increase - Activity Score | SGOT Increase - Index Value | SGOT Increase - Number of Reports
CCCCCCC(=O)O[C@H]1CC[C@H]2[C@@H]3CCc4cc(O)ccc4[C@H]3CC[C@]12C [ESTRADIOL ENANTHATE] | Inactive | 2.8 | >= 4
C[C@]12CC[C@@H]3c4ccc(OC(=O)Cc5ccc(N(CCCl)CCCl)cc5)cc4CC[C@H]3[C@@H]1CC[C@@H]2OC(=O)Cc1ccc(N(CCCl)CCCl)cc1 [ESTRADIOL MUSTARD] | Inactive | 0 | < 4
CCCCCCCCCCC(=O)O[C@H]1CC[C@H]2[C@@H]3CCc4cc(O)ccc4[C@H]3CC[C@]12C [ESTRADIOL UNDECYLATE] | Inactive | 2.8 | >= 4
CCCCC(=O)O[C@H]1CC[C@H]2[C@@H]3CCc4cc(O)ccc4[C@H]3CC[C@]12C [ESTRADIOL VALERATE] | Inactive | 2.8 | >= 4
C[C@]12CC[C@@H]3c4ccc(O)cc4CC[C@H]3[C@@H]1CC[C@@H]2O [ESTRADIOL] | Inactive | 2.8 | >= 4
C[C@]12CC[C@@H]3c4ccc(OC(=O)N(CCCl)CCCl)cc4CC[C@H]3[C@@H]1CC[C@@H]2O [ESTRAMUSTINE] | Inactive | 0 | < 4
CCc1cccc2c3c([nH]c12)C(CC)(CC(=O)O)OCC3 (configuration not stated) [ETODOLAC] | Inactive | 1.1 | >= 4
CCOC(=O)c1cncn1[C@H](C)c1ccccc1 [ETOMIDATE] | Inactive | 0 | < 4
COc1cc([C@@H]2c3cc4c(cc3[C@@H](O[C@@H]3O[C@@H]5CO[C@@H](C)O[C@H]5[C@H](O)[C@H]3O)[C@H]3COC(=O)[C@H]23)OCO4)cc(OC)c1O [ETOPOSIDE] | Inactive | 0.4 | < 4

The compounds below were run on Hepatotoxicity (assay: FDA HLAED, alkaline phosphatase increase). Settings: human.

Structure (SMILES) | Alkaline Phosphatase Increase - Activity Score | Alkaline Phosphatase Increase - Index Value | Alkaline Phosphatase Increase - Number of Reports
CCCCCCC(=O)O[C@H]1CC[C@H]2[C@@H]3CCc4cc(O)ccc4[C@H]3CC[C@]12C [ESTRADIOL ENANTHATE] | Inactive | 1.5 | >= 4
C[C@]12CC[C@@H]3c4ccc(OC(=O)Cc5ccc(N(CCCl)CCCl)cc5)cc4CC[C@H]3[C@@H]1CC[C@@H]2OC(=O)Cc1ccc(N(CCCl)CCCl)cc1 [ESTRADIOL MUSTARD] | Inactive | 0 | < 4
CCCCCCCCCCC(=O)O[C@H]1CC[C@H]2[C@@H]3CCc4cc(O)ccc4[C@H]3CC[C@]12C [ESTRADIOL UNDECYLATE] | Inactive | 1.5 | >= 4
CCCCC(=O)O[C@H]1CC[C@H]2[C@@H]3CCc4cc(O)ccc4[C@H]3CC[C@]12C [ESTRADIOL VALERATE] | Inactive | 1.5 | >= 4
C[C@]12CC[C@@H]3c4ccc(O)cc4CC[C@H]3[C@@H]1CC[C@@H]2O [ESTRADIOL] | Inactive | 1.5 | >= 4
C[C@]12CC[C@@H]3c4ccc(OC(=O)N(CCCl)CCCl)cc4CC[C@H]3[C@@H]1CC[C@@H]2O [ESTRAMUSTINE] | Active | 43.7 | < 4
CCc1cccc2c3c([nH]c12)C(CC)(CC(=O)O)OCC3 (configuration not stated) [ETODOLAC] | Inactive | 0.8 | >= 4
CCOC(=O)c1cncn1[C@H](C)c1ccccc1 [ETOMIDATE] | Inactive | 0 | < 4
COc1cc([C@@H]2c3cc4c(cc3[C@@H](O[C@@H]3O[C@@H]5CO[C@@H](C)O[C@H]5[C@H](O)[C@H]3O)[C@H]3COC(=O)[C@H]23)OCO4)cc(OC)c1O [ETOPOSIDE] | Inactive | 0.8 | < 4

These compounds were tested on Hepatotoxicity (assay: FDA HLAED, gamma-glutamyl transferase (GGT) increase). Settings: human.

Structure (SMILES) | GGT Increase - Activity Score | GGT Increase - Index Value | GGT Increase - Number of Reports
CCCCCCC(=O)O[C@H]1CC[C@H]2[C@@H]3CCc4cc(O)ccc4[C@H]3CC[C@]12C [ESTRADIOL ENANTHATE] | Inactive | 0.3 | < 4
C[C@]12CC[C@@H]3c4ccc(OC(=O)Cc5ccc(N(CCCl)CCCl)cc5)cc4CC[C@H]3[C@@H]1CC[C@@H]2OC(=O)Cc1ccc(N(CCCl)CCCl)cc1 [ESTRADIOL MUSTARD] | Inactive | 0 | < 4
CCCCCCCCCCC(=O)O[C@H]1CC[C@H]2[C@@H]3CCc4cc(O)ccc4[C@H]3CC[C@]12C [ESTRADIOL UNDECYLATE] | Inactive | 0.3 | < 4
CCCCC(=O)O[C@H]1CC[C@H]2[C@@H]3CCc4cc(O)ccc4[C@H]3CC[C@]12C [ESTRADIOL VALERATE] | Inactive | 0.3 | < 4
C[C@]12CC[C@@H]3c4ccc(O)cc4CC[C@H]3[C@@H]1CC[C@@H]2O [ESTRADIOL] | Inactive | 0.3 | < 4
C[C@]12CC[C@@H]3c4ccc(OC(=O)N(CCCl)CCCl)cc4CC[C@H]3[C@@H]1CC[C@@H]2O [ESTRAMUSTINE] | Inactive | 0 | < 4
CCc1cccc2c3c([nH]c12)C(CC)(CC(=O)O)OCC3 (configuration not stated) [ETODOLAC] | Inactive | 0.8 | >= 4
CCOC(=O)c1cncn1[C@H](C)c1ccccc1 [ETOMIDATE] | Inactive | 0 | < 4
COc1cc([C@@H]2c3cc4c(cc3[C@@H](O[C@@H]3O[C@@H]5CO[C@@H](C)O[C@H]5[C@H](O)[C@H]3O)[C@H]3COC(=O)[C@H]23)OCO4)cc(OC)c1O [ETOPOSIDE] | Inactive | 0 | < 4

The compounds below were run on Hepatotoxicity (assay: FDA HLAED, liver enzyme composite activity). Settings: human.

Structure (SMILES) | Composite Activity - Active | Composite Activity - Marginal | Composite Activity - Score
CCCCCCC(=O)O[C@H]1CC[C@H]2[C@@H]3CCc4cc(O)ccc4[C@H]3CC[C@]12C [ESTRADIOL ENANTHATE] | 0 | 0 | Inactive
C[C@]12CC[C@@H]3c4ccc(OC(=O)Cc5ccc(N(CCCl)CCCl)cc5)cc4CC[C@H]3[C@@H]1CC[C@@H]2OC(=O)Cc1ccc(N(CCCl)CCCl)cc1 [ESTRADIOL MUSTARD] | 0 | 0 | Inactive
CCCCCCCCCCC(=O)O[C@H]1CC[C@H]2[C@@H]3CCc4cc(O)ccc4[C@H]3CC[C@]12C [ESTRADIOL UNDECYLATE] | 0 | 0 | Inactive
CCCCC(=O)O[C@H]1CC[C@H]2[C@@H]3CCc4cc(O)ccc4[C@H]3CC[C@]12C [ESTRADIOL VALERATE] | 0 | 0 | Inactive
C[C@]12CC[C@@H]3c4ccc(O)cc4CC[C@H]3[C@@H]1CC[C@@H]2O [ESTRADIOL] | 0 | 0 | Inactive
C[C@]12CC[C@@H]3c4ccc(OC(=O)N(CCCl)CCCl)cc4CC[C@H]3[C@@H]1CC[C@@H]2O [ESTRAMUSTINE] | 1 | 0 | Inactive
CCc1cccc2c3c([nH]c12)C(CC)(CC(=O)O)OCC3 (configuration not stated) [ETODOLAC] | 0 | 0 | Inactive
CCOC(=O)c1cncn1[C@H](C)c1ccccc1 [ETOMIDATE] | 0 | 0 | Inactive

Same assay, conditions: human, Liver

Structure (SMILES) | Composite Activity - Active | Composite Activity - Marginal | Composite Activity - Score
COc1cc([C@@H]2c3cc4c(cc3[C@@H](O[C@@H]3O[C@@H]5CO[C@@H](C)O[C@H]5[C@H](O)[C@H]3O)[C@H]3COC(=O)[C@H]23)OCO4)cc(OC)c1O [ETOPOSIDE] | 0 | 0 | Inactive

These compounds were tested on Hepatotoxicity (assay: FDA HLAED, lactate dehydrogenase (LDH) increase). Settings: human.

Structure (SMILES) | LDH Increase - Activity Score | LDH Increase - Index Value | LDH Increase - Number of Reports
CCCCCCC(=O)O[C@H]1CC[C@H]2[C@@H]3CCc4cc(O)ccc4[C@H]3CC[C@]12C [ESTRADIOL ENANTHATE] | Inactive | 1.2 | >= 4
C[C@]12CC[C@@H]3c4ccc(OC(=O)Cc5ccc(N(CCCl)CCCl)cc5)cc4CC[C@H]3[C@@H]1CC[C@@H]2OC(=O)Cc1ccc(N(CCCl)CCCl)cc1 [ESTRADIOL MUSTARD] | Inactive | 0 | < 4
CCCCCCCCCCC(=O)O[C@H]1CC[C@H]2[C@@H]3CCc4cc(O)ccc4[C@H]3CC[C@]12C [ESTRADIOL UNDECYLATE] | Inactive | 1.2 | >= 4
CCCCC(=O)O[C@H]1CC[C@H]2[C@@H]3CCc4cc(O)ccc4[C@H]3CC[C@]12C [ESTRADIOL VALERATE] | Inactive | 1.2 | >= 4
C[C@]12CC[C@@H]3c4ccc(O)cc4CC[C@H]3[C@@H]1CC[C@@H]2O [ESTRADIOL] | Inactive | 1.2 | >= 4
C[C@]12CC[C@@H]3c4ccc(OC(=O)N(CCCl)CCCl)cc4CC[C@H]3[C@@H]1CC[C@@H]2O [ESTRAMUSTINE] | Inactive | 0 | < 4
CCc1cccc2c3c([nH]c12)C(CC)(CC(=O)O)OCC3 (configuration not stated) [ETODOLAC] | Inactive | 0.6 | >= 4
CCOC(=O)c1cncn1[C@H](C)c1ccccc1 [ETOMIDATE] | Inactive | 0 | < 4
COc1cc([C@@H]2c3cc4c(cc3[C@@H](O[C@@H]3O[C@@H]5CO[C@@H](C)O[C@H]5[C@H](O)[C@H]3O)[C@H]3COC(=O)[C@H]23)OCO4)cc(OC)c1O [ETOPOSIDE] | Inactive | 0.4 | < 4
